Columns and labels:
HSP90a protein = biological target: T1, HSP90a protein (Homo sapiens, UniProt P07900); test: HSP90α-binding fluorescent polarization (FP) assay, BODIPY-labeled RNK04010 probe; settings: FP competition with RNK04010 (BODIPY-labeled), 5 nM, 300 min at 25° C.
T1 construct: purchased BPS Bioscience 50298
Outline: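 Displacement of a 5 nM fluorescent HSP90 ligand from the N-terminal HSP90a domain by FP. Incubation ran at 25° C: 120 min for the FITC-geldanamycin tracer, 300 min for the BODIPY-conjugated triazolone RNK04010.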

[1] = tested on: MIA PaCa-2 human pancreatic carcinoma; test: MIA PaCa-2 CCK-8 proliferation assay; format: cell-based; settings: Homo sapiens, MIA PaCa-2, 72 h, MIA PaCa-2 cells
Outline: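 CCK-8 absorbance readout; % inhibition = 100 − (compound − blank)/(DMSO − blank) × 100, blank = medium + DMSO, no cells. Dose range 20 μM down to 1.02 nM, 3-fold steps. KRAS(G12C) copy number: MIA PaCa-2 2; NCI-H358 1; NCI-H23 1.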

KRAS(G12C) = KRAS(G12C) (Homo sapiens, UniProt P01116, G12C); test: KRAS(G12C)/SOS1 homogeneous time-resolved fluorescence (HTRF) assay; design: purchased Cisbio 63ADK000CB16PEG; settings: absence of GTP, 4° C. for 3 hr, read-out: KRAS (G12C) binding
KRAS(G12C), sequence (P01116 1-188 isoform P01116-2 G12C): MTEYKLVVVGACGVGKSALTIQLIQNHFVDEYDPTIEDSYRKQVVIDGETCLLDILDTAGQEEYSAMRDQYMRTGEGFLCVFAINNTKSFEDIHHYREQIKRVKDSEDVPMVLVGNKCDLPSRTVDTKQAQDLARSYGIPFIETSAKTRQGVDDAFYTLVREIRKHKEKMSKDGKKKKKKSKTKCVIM
Outline: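 HTRF kit measuring compound-induced block of KRAS(G12C)-SOS1 interaction without GTP. Compounds tested as 3-fold serial dilutions down to 1.02 nM, incubated with reaction components 3 h at 4 °C in sealed plates before fluorescence read.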

Row | IC50 (HSP90a protein) [µM] | EC50 [1] [µM] | IC50 (KRAS(G12C)) [µM] | SMILES
1 | < 0.1 | < 0.1 | < 0.1 | C=CC(=O)N1CCN(c2nc(OC[C@@H]3C[C@H](NC(=O)C4CCN(C(=O)C5CCN(Cc6ccc(-n7c(C(=O)NCC(F)(F)C(F)(F)F)nnc7-c7cc(C(C)C)c(O)cc7O)cc6)CC5)CC4)CN3C)nc3c2CCN(c2cccc4cccc(Cl)c24)C3)C[C@@H]1CC#N [Compound 308, N-[(3S,5S)-5-({[7-(8-chloronaphthalen-1-yl)-4-[(3S)-3-(cyanomethyl)-4-(prop-2-enoyl)piperazin-1-yl]-5H,6H,8H-pyrido[3,4-d]pyrimidin-2-yl]oxy}methyl)-1-methylpyrrolidin-3-yl]-1-[1-({4-[3-(2,4-dihydroxy-5-isopropylphenyl)-5-[(2,2,3,3,3-pentafluoropropyl)carbamoyl]-1,2,4-triazol-4-yl]phenyl}methyl)piperidine-4-carbonyl]piperidine-4-carboxamide]
2 | < 0.1 | < 0.1 | < 0.1 | C=CC(=O)N1CCN(c2nc(OC[C@@H]3C[C@H](NC(=O)C4CCN(C(=O)C5CCN(Cc6ccc(-n7c(C(=O)NCC(F)(F)F)nnc7-c7cc(C(C)C)c(O)cc7O)cc6)CC5)CC4)CN3C)nc3c2CCN(c2cccc4cccc(Cl)c24)C3)C[C@@H]1CC#N [Compound 307, N-[(3S,5S)-5-({[7-(8-chloronaphthalen-1-yl)-4-[(3S)-3-(cyanomethyl)-4-(prop-2-enoyl)piperazin-1-yl]-5H,6H,8H-pyrido[3,4-d]pyrimidin-2-yl]oxy}methyl)-1-methylpyrrolidin-3-yl]-1-[1-({4-[3-(2,4-dihydroxy-5-isopropylphenyl)-5-[(2,2,2-tri-fluoroethyl)carbamoyl]-1,2,4-triazol-4-yl]phenyl}methyl)piperidine-4-carbonyl]piperidine-4-carboxamide]
3 | < 0.1 | > 1 | 0.1 to 1 | C=CC(=O)N1CCN(c2nc(OC[C@@H]3CN(C(=O)C4CCN(Cc5ccc(-n6c(O)nnc6-c6cc(C(C)C)c(O)cc6O)cc5)CC4)CCN3C)nc3c2CCN(c2cccc4cccc(Cl)c24)C3)C[C@@H]1CC#N [Compound 202, 2-((S)-1-acryloyl-4-(7-(8-chloronaphthalen-1-yl)-2-(((S)-4-(1-(4-(3-(2,4-dihydroxy-5-isopropylphenyl)-5-hydroxy-4H-1,2,4-triazol-4-yl)benzyl)piperidine-4-carbonyl)-1-methylpiperazin-2-yl)methoxy)-5,6,7,8-tetrahydropyrido[3,4-d]pyrimidin-4-yl)piperazin-2-yl)acetonitrile, trifluoroacetic acid]
4 | < 0.1 | 0.1 to 1 | 0.1 to 1 | C=CC(=O)N1CCN(c2nc(OC[C@@H]3C[C@@H](OCC(=O)N4CCC(CN5CCN(Cc6ccc(-n7c(O)nnc7-c7cc(C(C)C)c(O)cc7O)cc6)CC5)CC4)CN3C)nc3c2CCN(c2cccc4cccc(Cl)c24)C3)C[C@@H]1CC#N [Compound 301, 2-((S)-1-acryloyl-4-(7-(8-chloronaphthalen-1-yl)-2-(((2S,4R)-4-(2-(4-((4-(4-(3-(2,4-dihydroxy-5-isopropylphenyl)-5-hydroxy-4H-1,2,4-triazol-4-yl)benzyl)piperazin-1-yl)methyl)piperidin-1-yl)-2-oxoethoxy)-1-methylpyrrolidin-2-yl)methoxy)-5,6,7,8-tetrahydropyrido[3,4-d]pyrimidin-4-yl)piperazin-2-yl)acetonitrile]
5 | < 0.1 | > 1 | 0.1 to 1 | C=CC(=O)N1CCN(c2nc(OC[C@@H]3CN(C(=O)C4CCN(Cc5ccc(-n6c(O)nnc6-c6cc(C)c(O)cc6O)cc5)CC4)CCN3C)nc3c2CCN(c2cccc4cccc(Cl)c24)C3)C[C@@H]1CC#N [Compound 203, 2-((S)-1-acryloyl-4-(7-(8-chloronaphthalen-1-yl)-2-(((S)-4-(1-(4-(3-(2,4-dihydroxy-5-methylphenyl)-5-hydroxy-4H-1,2,4-triazol-4-yl)benzyl)piperidine-4-carbonyl)-1-methylpiperazin-2-yl)methoxy)-5,6,7,8-tetrahydropyrido[3,4-d]pyrimidin-4-yl)piperazin-2-yl)acetonitrile, trifluoroacetic acid]
6 | < 0.1 | 0.1 to 1 | 0.1 to 1 | C=CC(=O)N1CCN(c2nc(OC[C@@H]3CC[C@H](C(=O)N4CCN(Cc5ccc(-n6c(O)nnc6-c6cc(C(C)C)c(O)cc6O)cc5)CC4)N3C)nc3c2CCN(c2cccc4cccc(Cl)c24)C3)C[C@@H]1CC#N [Compound 324, 2-[(2S)-4-[7-(8-chloronaphthalen-1-yl)-2-{[(2S,5R)-5-[4-({4-[3-(2,4-dihydroxy-5-isopropylphenyl)-5-hydroxy-1,2,4-triazol-4-yl]phenyl}methyl)piperazine-1-carbonyl]-1-methylpyrrolidin-2-yl]methoxy}-5H,6H,8H-pyrido[3,4-d]pyrimidin-4-yl]-1-(prop-2-enoyl)piperazin-2-yl]acetonitrile]
7 | < 0.1 | > 1 | < 0.1 | C=CC(=O)N1CCN(c2nc(OC[C@@H]3C[C@H](N4CCC(C(=O)NCCc5ccc(-n6c(O)nnc6-c6cc(C(C)C)c(O)cc6O)cc5)CC4)CN3C)nc3c2CCN(c2cccc4cccc(Cl)c24)C3)C[C@@H]1CC#N [Compound 328, 1-[(3S,5S)-5-({[7-(8-chloronaphthalen-1-yl)-4-[(3S)-3-(cyanomethyl)-4-(prop-2-enoyl)piperazin-1-yl]-5H,6H,8H-pyrido[3,4-d]pyrimidin-2-yl]oxy}methyl)-1-methylpyrrolidin-3-yl]-N-(2-{4-[3-(2,4-dihydroxy-5-isopropylphenyl)-5-hydroxy-1,2,4-triazol-4-yl]phenyl}ethyl)piperidine-4-carboxamide]
8 | < 0.1 | > 1 | 0.1 to 1 | C=CC(=O)N1CCN(c2nc(OC[C@@H]3C[C@@H](NC(=O)c4ccc(-n5c(O)nnc5-c5cc(C(C)C)c(O)cc5O)cc4)CN3C)nc3c2CCN(c2cccc4cccc(Cl)c24)C3)C[C@@H]1CC#N [Compound 196, N-((3R,5S)-5-(((4-((S)-4-acryloyl-3-(cyanomethyl)piperazin-1-yl)-7-(8-chloronaphthalen-1-yl)-5,6,7,8-tetrahydropyrido[3,4-d]pyrimidin-2-yl)oxy)methyl)-1-methylpyrrolidin-3-yl)-4-(3-(2,4-dihydroxy-5-isopropylphenyl)-5-hydroxy-4H-1,2,4-triazol-4-yl)benzamide, trifluoroacetic acid]
9 | < 0.1 | > 1 | < 0.1 | C=CC(=O)N1CCN(c2nc(OC[C@@H]3CC[C@H](C(=O)N4CCN(Cc5ccc(-n6c(O)nnc6-c6cc(C)c(O)cc6O)cc5)CC4)N3C)nc3c2CCN(c2cccc4cccc(Cl)c24)C3)C[C@@H]1CC#N [Compound 325, 2-[(2S)-4-[7-(8-chloronaphthalen-1-yl)-2-{[(2S,5R)-5-[4-({4-[3-(2,4-dihydroxy-5-methylphenyl)-5-hydroxy-1,2,4-triazol-4-yl]phenyl}methyl)piperazine-1-carbonyl]-1-methylpyrrolidin-2-yl]methoxy}-5H,6H,8H-pyrido[3,4-d]pyrimidin-4-yl]-1-(prop-2-enoyl)piperazin-2-yl]acetonitrile]
10 | 0.1 to 1 | > 1 | < 0.1 | C=CC(=O)N1CCN(c2nc(OC[C@@H]3C[C@H](N4CCC5(CCN(Cc6cc(C(C)C)c(O)cc6O)CC5)CC4)CN3C)nc3c2CCN(c2cccc4cccc(Cl)c24)C3)C[C@@H]1CC#N [Compound 338, 2-[(2S)-4-[7-(8-chloronaphthalen-1-yl)-2-{[(2S,4S)-4-{9-[(2,4-dihydroxy-5-isopropylphenyl)methyl]-3,9-diazaspiro[5.5]undecan-3-yl}-1-methylpyrrolidin-2-yl]methoxy}-5H,6H,8H-pyrido[3,4-d]pyrimidin-4-yl]-1-(prop-2-enoyl)piperazin-2-yl]acetonitrile]
11 | < 0.1 | 0.1 to 1 | < 0.1 | C=CC(=O)N1CCN(c2nc(OC[C@@H]3C[C@H](C(=O)NCCc4ccc(-n5c(O)nnc5-c5cc(C(C)C)c(O)cc5O)cc4)CN3C)nc3c2CCN(c2cccc4cccc(Cl)c24)C3)C[C@@H]1CC#N [Compound 345, (3S,5S)-5-({[7-(8-chloronaphthalen-1-yl)-4-[(3S)-3-(cyanomethyl)-4-(prop-2-enoyl)piperazin-1-yl]-5H,6H,8H-pyrido[3,4-d]pyrimidin-2-yl]oxy}methyl)-N-(2-{4-[3-(2,4-dihydroxy-5-isopropylphenyl)-5-hydroxy-1,2,4-triazol-4-yl]phenyl}ethyl)-1-methylpyrrolidine-3-carboxamide]
12 | < 0.1 | > 1 | 0.1 to 1 | C=CC(=O)N1CCN(c2nc(OCC3CCC(CNCc4ccc(-n5c(O)nnc5-c5cc(CC)c(O)cc5O)cc4)N3)nc3c2CCN(c2cccc4cccc(Cl)c24)C3)C[C@@H]1CC#N (stereo partly drawn) [Compound 299, 2-((2S)-1-acryloyl-4-(7-(8-chloronaphthalen-1-yl)-2-((5-(((4-(3-(5-ethyl-2,4-dihydroxyphenyl)-5-hydroxy-4H-1,2,4-triazol-4-yl)benzyl)amino)methyl)pyrrolidin-2-yl)methoxy)-5,6,7,8-tetrahydropyrido[3,4-d]pyrimidin-4-yl)piperazin-2-yl)acetonitrile]

Source: patent US20230391772A1, “METHODS AND COMPOSITIONS FOR TARGETED PROTEIN DEGRADATION” (Ranok Therapeutics (Hangzhou) Co. Ltd., priority 2020, published 2023)
